We go through 24 compounds from patent US20230121721A1, “MONOACYLGLYCEROL LIPASE INHIBITORS” (STICHTING HET NEDERLANDS KANKER INSTITUUT - ANTONI VAN …, priority 2020, published 2023).

The term IC50 denotes the concentration that gives 50% inhibition.

Structures are written as SMILES. A value given as a limit tells only on which side of the number the result lay.

This experiment addresses T1, hMAGL (MAGL-overexpressing membrane preparations from transiently transfected HEK293T cells) (Homo sapiens, UniProt Q99685).
T1 construct: expressed in transfected cells; host or cells: HEK293T (transient transfection), membrane preparations
T1 sequence (Q99685 1-303): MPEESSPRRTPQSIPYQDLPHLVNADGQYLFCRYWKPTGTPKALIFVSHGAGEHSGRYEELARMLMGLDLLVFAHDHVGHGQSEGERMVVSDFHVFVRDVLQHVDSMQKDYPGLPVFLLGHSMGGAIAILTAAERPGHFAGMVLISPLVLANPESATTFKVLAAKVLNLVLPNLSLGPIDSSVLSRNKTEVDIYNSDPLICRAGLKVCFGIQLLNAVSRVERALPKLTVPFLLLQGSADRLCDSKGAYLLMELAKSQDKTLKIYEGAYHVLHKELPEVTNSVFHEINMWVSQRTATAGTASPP
Briefly: MAGL activity assay (2-AG hydrolysis, glycerol coupled to Amplifu Red fluorescence). In kind it is biochemical. To be noted: hMAGL-overexpressing HEK293T membranes, 25 μM 2-AG substrate, 20 min. inhibitor incubation. The text has this: The MAGL activity assay is based on the production of glycerol from 2-arachidonoylglycerol (2-AG) hydrolysis by MAGL-overexpressing membrane preparations from transiently transfected HEK293T cells, as previously reported in van der Wel T et al., “A natural substrate-based fluorescence assay for inhibitor screening on diacylglycerol lipase”, J Lipid Res., 2015, 56(4), 927-35. The produced glycerol is coupled to the oxidation of commercially available Amplifu™ Red (Sigma-Aldrich Chemie N.V., Zwijndrecht, Netherlands) via a multi-enzyme cascade, resulting in a fluorescent signal from the dye resorufin.
Standard assays were performed in HEMNB buffer (50 mM HEPES pH 7.4, 1 mM EDTA, 5 mM MgCl2, 100 mM NaCl, 0.5% (w/v) BSA) in black, flat bottom 96-wells plates. Final protein concentration of membrane preparations from overexpressing hMAGL HEK293T cells was 1.5 μg/mL (0.3 μg per well). Inhibitors were added from 40× concentrated DMSO stocks. […] Final assay concentrations: 0.2 U/mL GK, GPO and HRP, 0.125 mM ATP, 10 μM Amplifu™ Red, 25 μM 2-AG, 5% DMSO, 0.5% ACN in a total volume of 200 μL.
For IC50 determination, the MAGL-overexpressing membranes were incubated with different inhibitor concentrations. Slopes of corrected fluorescence in time were determined in the linear interval of t=10 to t=35 min and then scaled to the corrected positive control of hMAGL-overexpressing membranes treated with vehicle (DMSO) as a 100% activity reference point. The data was exported to GraphPad Prism 5.0 and analysed in a non-linear dose-response analysis with variable slope.
`CCOC(=O)C[S+]([O-])c1ccc(C(=O)N2CCN(c3cccc(Cl)c3)CC2(C)C)cc1F` (stereo not drawn) [Example 48, Ethyl 2-((4-(4-(3-chlorophenyl)-2,2-dimethylpiperazine-1-carbonyl)-2-fluorophenyl)sulfinyl)acetate] gave an IC50 of 57.5 nM.
With `Cc1cnc(C(=O)C[S+]([O-])c2ccc(C(=O)N3CCN(c4cccc(Cl)c4)[C@@H](C)[C@@H]3C)cc2Cl)o1` (mixture of isomers) [Example 76, (±) 2-((2-Chloro-4-(4-(3-chlorophenyl)-trans-2,3-dimethylpiperazine-1-carbonyl)phenyl)sulfinyl)-1-(5-methyloxazol-2-yl)ethan-1-one] the figure was 380 nM; with `C[C@H]1[C@H](C)N(c2cccc(Cl)c2)CCN1C(=O)c1ccc([S+]([O-])CC(=O)c2ccc(Cl)c(C(F)(F)F)c2)c(Cl)c1` (mixture of isomers) [Example 91, (±) 1-(4-Chloro-3-(trifluoromethyl)phenyl)-2-((2-chloro-4-(4-(3-chlorophenyl)-trans-2,3-dimethyl-piperazine-1-carbonyl)-phenyl)sulfinyl)ethan-1-one], more than 10000 nM; with `CCOC(=O)C[S+]([O-])c1ccc(CN2CCN(c3cccc(Cl)c3)[C@H](C)[C@H]2C)cc1Cl` (mixture of isomers) [Example 54, (±) Ethyl 2-((2-chloro-4-((4-(3-chlorophenyl)-trans-2,3-dimethylpiperazin-1-yl)methyl)phenyl)sulfinyl)acetate], 6.17 nM.
As for `C[C@H]1[C@H](C)N(c2cc(Cl)ccn2)CCN1C(=O)c1ccc([S+]([O-])CC(=O)C(C)(F)F)c(Cl)c1` (mixture of isomers) [Example 83, (±) 1-((2-Chloro-4-(4-(4-chloropyridin-2-yl)-trans-2,3-dimethylpiperazine-1-carbonyl)phenyl)sulfinyl)-3,3-difluorobutan-2-one], inhibition was half-maximal at 3.39 nM (IC50).
The result for `CCOC(=O)CC(=O)c1ccc(C(=O)N2CCN(c3cccc(Cl)c3)[C@H](C)[C@H]2C)cc1Cl` (racemic) [Example 55, (±) Ethyl 3-(2-chloro-4-(4-(3-chlorophenyl)-trans-2,3-dimethylpiperazine-1-carbonyl)phenyl)-3-oxopropanoate] reads 1150 nM.
The result for `CCOC(=O)C[S+]([O-])c1ccc(C(=O)N2CCN(c3cccc([N+](=O)[O-])c3)CC2)cc1[N+](=O)[O-]` (stereo not drawn) [Example 19, Ethyl 2-((2-nitro-4-(4-(3-nitrophenyl)piperazine-1-carbonyl)phenyl)sulfinyl)acetate] reads 2570 nM; that for `CCOC(=O)CS(=O)(=O)c1ccc(C(=O)N2CCN(c3cccc(C)c3)[C@@H](C)C2)cc1[N+](=O)[O-]` [Example 6, Ethyl (S)-2-((4-(3-methyl-4-(m-tolyl)piperazine-1-carbonyl)-2-nitrophenyl)sulfonyl)acetate], more than 10000 nM.
With `C[C@H]1[C@H](C)N(c2cccc(Cl)c2)CCN1C(=O)c1ccc([S+]([O-])CC(=O)c2nccs2)c(Cl)c1` (mixture of isomers) [Example 75, (±) 2-((2-Chloro-4-(4-(3-chlorophenyl)-trans-2,3-dimethylpiperazine-1-carbonyl)phenyl)sulfinyl)-1-(thiazol-2-yl)ethan-1-one] the figure was 234 nM; with `CCOC(=O)C[S+]([O-])c1ccc(C(=O)N2CCN(c3cccc(C(F)(F)F)c3)[C@@H](C)C2)cc1[N+](=O)[O-]` (stereo partly drawn) [Example 31, Ethyl 2-((4-((S)-3-methyl-4-(3-(trifluoromethyl)phenyl)piperazine-1-carbonyl)-2-nitrophenyl)sulfinyl)acetate], 200 nM.
In the case of `C[C@H]1[C@H](C)N(c2cccc(Cl)c2)CCN1C(=O)c1ccc([S+]([O-])CC(=O)C(C)(F)F)c(Cl)c1` (mixture of isomers) [Example 78, (±) 1-((2-Chloro-4-(4-(3-chlorophenyl)-trans-2,3-dimethylpiperazine-1-carbonyl)phenyl)sulfinyl)-3,3-difluorobutan-2-one], inhibition was half-maximal at 1.48 nM (IC50).
In turn, `CCOC(=O)C[S+]([O-])c1ccc(C(=O)N2CCN(c3c(Cl)cccc3Cl)CC2)cc1[N+](=O)[O-]` (stereo not drawn) [Example 24, Ethyl 2-((4-(4-(2,6-dichlorophenyl)piperazine-1-carbonyl)-2-nitrophenyl)sulfinyl)acetate] showed an IC50 of 1820 nM.
With `CCOC(=O)C[S+]([O-])c1ccc(C(=O)N2CCN(c3ccc(C(F)(F)F)cc3)CC2)cc1[N+](=O)[O-]` (stereo not drawn) [Example 16, Ethyl 2-((2-nitro-4-(4-(4-(trifluoromethyl)phenyl)piperazine-1-carbonyl)phenyl)sulfinyl)acetate] the figure was 589 nM.
`CCOC(=O)C[S+]([O-])c1ccc(C(=O)N2CCN(c3cccc(C)c3)[C@H](C)C2)cc1[N+](=O)[O-]` (stereo partly drawn) [Example 3, Ethyl 2-((4-((R)-3-methyl-4-(m-tolyl)piperazine-1-carbonyl)-2-nitrophenyl)sulfinyl)acetate] had an IC50 of 195 nM.
With `C[C@H]1[C@H](C)N(c2cccc(Cl)c2)CCN1C(=O)c1ccc([S+]([O-])CC(=O)c2cc(F)cc(F)c2)c(Cl)c1` (mixture of isomers) [Example 89, (±) 2-((2-Chloro-4-(4-(3-chlorophenyl)-trans-2,3-dimethylpiperazine-1-carbonyl)phenyl)sulfinyl)-1-(3,5-difluorophenyl)ethan-1-one] the figure was 2090 nM; with `C[C@H]1[C@H](C)N(c2cccc(Cl)c2)CCN1C(=O)c1ccc([S+]([O-])CC(=O)C(F)F)c(Cl)c1` (mixture of isomers) [Example 77, (±) 3-((2-Chloro-4-(4-(3-chlorophenyl)-trans-2,3-dimethylpiperazine-1-carbonyl)phenyl)sulfinyl)-1,1-difluoropropan-2-one], 2.34 nM.
With `CCN(C)C(=O)C[S+]([O-])c1ccc(C(=O)N2CCN(c3cccc(Cl)c3)[C@H](C)C2)cc1[N+](=O)[O-]` (stereo partly drawn) [Example 33, 2-((4-((R)-4-(3-Chlorophenyl)-3-methylpiperazine-1-carbonyl)-2-nitrophenyl)sulfinyl)-N-ethyl-N-methylacetamide] the figure was more than 10000 nM; with `CCC(F)(F)C(=O)C[S+]([O-])c1ccc(C(=O)N2CCN(c3cccc(Cl)n3)[C@@H](C)[C@@H]2C)cc1Cl` (mixture of isomers) [Example 82, (±) 1-((2-Chloro-4-(4-(6-chloropyridin-2-yl)-trans-2,3-dimethylpiperazine-1-carbonyl)phenyl)sulfinyl)-3,3-difluoropentan-2-one], 0.123 nM.
For `C[C@H]1[C@H](C)N(c2cccc(Cl)c2)CCN1C(=O)c1ccc([S+]([O-])CC(=O)c2cccnn2)c(Cl)c1` (mixture of isomers) [Example 88, (±) 2-((2-Chloro-4-(4-(3-chlorophenyl)-trans-2,3-dimethylpiperazine-1-carbonyl)phenyl)sulfinyl)-1-(pyridazin-3-yl)ethan-1-one], it took 251 nM to reach half-maximal inhibition (IC50).
With `C[C@H]1[C@H](C)N(c2cccc(Cl)c2)CCN1C(=O)c1ccc([S+]([O-])CC(=O)c2ccc(C(F)(F)F)cc2)c(Cl)c1` (mixture of isomers) [Example 103, (±) 2-((2-Chloro-4-(4-(3-chlorophenyl)-trans-2,3-dimethylpiperazine-1-carbonyl)phenyl)sulfinyl)-1-(4-(trifluoromethyl)phenyl)ethan-1-one] the figure was 2950 nM.
The result for `C[C@H]1[C@H](C)N(c2cccc(Cl)c2)CCN1C(=O)c1ccc(SCC(=O)C(F)(F)F)c(Cl)c1` (racemic) [Example 72, (±) 3-((2-Chloro-4-(4-(3-chlorophenyl)-trans-2,3-dimethylpiperazine-1-carbonyl)phenyl)thio)-1,1,1-trifluoropropan-2-one] reads 20.9 nM; that for `CCOC(=O)CSc1ccc(C(=O)N2CCN(c3cccc(Cl)c3)[C@H](C)[C@H]2C)cc1Cl` (racemic) [Example 52, (±) Ethyl 2-((2-chloro-4-(4-(3-chlorophenyl)-trans-2,3-dimethylpiperazine-1-carbonyl)phenyl)thio)acetate], more than 10000 nM.
With `C[C@H]1[C@H](C)N(c2cccc(Cl)c2)CCN1C(=O)c1ccc([S+]([O-])CC(=O)C(F)(F)c2ccccc2)c(Cl)c1` (mixture of isomers) [Example 80, (±) 3-((2-Chloro-4-(4-(3-chlorophenyl)-trans-2,3-dimethylpiperazine-1-carbonyl)phenyl)sulfinyl)-1,1-difluoro-1-phenylpropan-2-one] the figure was 87.1 nM; with `CCOC(=O)C[S+]([O-])c1ccc(C(=O)N2CCN(c3cccc(F)c3)CC2)cc1[N+](=O)[O-]` (stereo not drawn) [Example 9, Ethyl 2-((4-(4-(3-fluorophenyl)piperazine-1-carbonyl)-2-nitrophenyl)sulfinyl)acetate], 631 nM.
